According to patent publication US6399745B1, “Use of leptin antagonists for treating insulin resistance in type II diabetes” (Aventis Pharma Deutschland GmbH, priority 1996, dated 2002):

What was measured:
[1] = test system: isolated rat adipocytes; test: Antagonism of fragment 116-167 to the leptin effect: insulin-stimulated lipogenesis; format: cell-based
Description: Adipocytes were prepared from the epididymal fat tissue of male Wistar rats (140-160 g, Hoechst AG breeding station, Kastengrund) by means of digesting with collagenase (Rodbell, 1964, J. Biol. Chem. 239, 375-380), washed twice with KRH (25 mM Hepes free acid, 25 mM Hepes sodium salt, 80 mM NaCl, 1 mM MgSO4, 2 mM CaCl2, 6 mM KCl, 1 mM sodium pyruvate, 0.5% BSA) and once with DMEM (Dulbecco's minimal essential medium), supplemented with 5.5 mM glucose, 20 mM Hepes (pH 7.4), 2% fetal calf serum, 1% BSA, 50 U of penicillin/ml, […], by means of flotation (800×g, 1 min, in small plastic tubes), and finally diluted to a volume of 20 ml of DMEM/g wet weight of the fat tissue (cell titer: approximately 2.5×10^5 cells/ml). […] In order to determine the capacity of the adipocytes to be stimulated by insulin, and their sensitivity to insulin, following the primary culture, the washed adipocytes were incubated at 37° C. for 20 min in the absence or presence of human insulin (0.02-50 nM final concentration), and glucose transport or lipogenesis was then measured. Lipogenesis was measured as the incorporation of D-glucose into toluene-extractable lipids (Moody et al., 1974, Horm. Metab. Res. 6, 12-16). […] The radioactivity of the lipids in the toluene phase was corrected for the radioactivity of an incubation mixture which contained the same quantity of [^3H]glucose but no cells. […]

[2] = test system: isolated rat adipocytes; test: Insulin stimulation of glycogenesis in isolated rat adipocytes under leptin; format: cell-based; conditions: basal values unaffected
[3] = test system: insulin receptor and insulin receptor substrate 1 (IRS-1); conditions: rat 1 fibroblasts overexpressing human insulin receptor; cited from earlier work
[4] = test system: C2C12 mouse myotubes; conditions: cited from earlier work
[5] = test system: ob/ob mice; conditions: injection; cited from earlier work

Row | Substance | Lipogenesis, stimulation factor for insulin (stimulated/basal) ([1]; Insulin only, 5 nM (no leptin, no fragment)) | insulin sensitivity of stimulation of glycogenesis [2] | insulin-induced phosphorylation of the insulin receptor and of IRS-1 [3] | glucose transport [4] | glycogen synthesis [4] | nutrient intake [5] | weight [5] | Lipogenesis, stimulation factor for insulin (stimulated/basal) ([1]; Leptin: 10 nM 17.5 h, no fragment, Insulin: 5 nM)
1 | Insulin: human insulin used to stimulate adipocytes [reference compound] | 3.9 |  |  |  |  |  |  | 
2 | Leptin |  | drastically reduced | decreases | stimulated | stimulated | reduction in nutrient intake | decrease in weight | 1.5
